Results published in patent US20260217767A1, “NOVEL A4B7 THIOETHER PEPTIDE DIMER ANTAGONISTS” (Protagonist Therapeutics, Inc., priority 2014, published 2026).
Where a SMILES comes first, the peptide text is derived from it.

What was measured:
rh integrin α4β7 = molecular target: T1, rh integrin α4β7 (Homo sapiens, UniProt P13612+P26010); experiment: α4β7-MAdCAM Competition ELISA; type: binding; conditions: thioether monomer peptides, Table 6; read-out: ELISA A4B7
T1 construct: purchased R&D Systems 5397-A30
T1 sequence (P13612 34-977 limits assumed): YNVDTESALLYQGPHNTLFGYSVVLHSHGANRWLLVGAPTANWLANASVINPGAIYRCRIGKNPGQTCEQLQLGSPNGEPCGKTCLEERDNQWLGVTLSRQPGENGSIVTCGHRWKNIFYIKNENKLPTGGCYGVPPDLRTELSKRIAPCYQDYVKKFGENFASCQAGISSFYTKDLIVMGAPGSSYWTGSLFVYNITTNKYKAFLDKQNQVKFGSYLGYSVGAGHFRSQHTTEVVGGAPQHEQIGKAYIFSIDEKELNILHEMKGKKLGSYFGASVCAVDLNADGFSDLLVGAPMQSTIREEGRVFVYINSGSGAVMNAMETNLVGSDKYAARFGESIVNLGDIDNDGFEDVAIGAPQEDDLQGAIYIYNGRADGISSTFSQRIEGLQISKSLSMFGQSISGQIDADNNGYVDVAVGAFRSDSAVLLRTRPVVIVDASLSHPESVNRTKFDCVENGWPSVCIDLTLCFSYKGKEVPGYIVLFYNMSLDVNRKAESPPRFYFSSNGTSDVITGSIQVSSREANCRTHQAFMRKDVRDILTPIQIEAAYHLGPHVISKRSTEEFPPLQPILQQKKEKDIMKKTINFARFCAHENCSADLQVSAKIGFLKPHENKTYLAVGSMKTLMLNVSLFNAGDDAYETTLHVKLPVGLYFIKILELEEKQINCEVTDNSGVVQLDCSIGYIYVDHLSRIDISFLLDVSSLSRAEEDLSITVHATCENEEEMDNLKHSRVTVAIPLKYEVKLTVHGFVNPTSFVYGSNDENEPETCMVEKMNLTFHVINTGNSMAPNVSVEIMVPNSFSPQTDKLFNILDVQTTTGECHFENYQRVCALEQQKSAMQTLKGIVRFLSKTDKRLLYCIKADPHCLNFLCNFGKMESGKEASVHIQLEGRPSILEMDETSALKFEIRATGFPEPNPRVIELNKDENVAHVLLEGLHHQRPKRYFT
T1 sequence (P26010 20-723 limits assumed): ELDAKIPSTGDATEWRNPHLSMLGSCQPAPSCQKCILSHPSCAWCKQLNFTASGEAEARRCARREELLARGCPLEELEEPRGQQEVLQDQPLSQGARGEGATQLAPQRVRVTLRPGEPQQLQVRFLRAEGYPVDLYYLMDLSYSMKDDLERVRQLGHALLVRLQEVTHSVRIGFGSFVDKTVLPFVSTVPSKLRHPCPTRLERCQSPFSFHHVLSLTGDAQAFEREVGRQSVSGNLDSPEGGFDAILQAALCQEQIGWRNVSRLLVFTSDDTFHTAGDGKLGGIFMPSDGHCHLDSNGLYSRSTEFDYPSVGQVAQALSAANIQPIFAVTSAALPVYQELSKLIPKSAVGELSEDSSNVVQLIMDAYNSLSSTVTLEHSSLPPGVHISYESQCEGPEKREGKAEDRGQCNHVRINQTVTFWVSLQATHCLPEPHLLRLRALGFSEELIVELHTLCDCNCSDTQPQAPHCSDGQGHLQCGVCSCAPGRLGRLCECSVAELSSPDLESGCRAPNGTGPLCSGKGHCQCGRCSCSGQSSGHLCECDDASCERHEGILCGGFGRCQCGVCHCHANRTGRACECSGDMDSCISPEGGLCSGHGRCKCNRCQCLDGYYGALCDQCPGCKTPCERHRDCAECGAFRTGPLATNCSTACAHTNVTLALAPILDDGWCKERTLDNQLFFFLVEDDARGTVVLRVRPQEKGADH
Description: α4β7-MAdCAM Competition ELISA A nickel coated plate (Pierce #15442) was coated with rh integrin α4β[…] Systems #5397-A30) at 800 ng/well and incubated at room temperature with shaking for 1 hr. The solution was then removed by shaking and blocked with assay buffer (50 mM Tris-HCl pH7.6, 150 mM NaCl, 1 mM MnCl2 or MgCl2, 0.05% Tween-20 and 0.5% BSA) at 250 ul/well. The plate was then incubated at room temperature for 1 hr. Each well was washed 3 times with wash buffer (50 mM Tris-HCl pH7.6, 100 mM NaCl, 1 mM MnCl2 or MgCl2, 0.05% Tween-20). To each well was added 25 ul of a serial dilution (3-fold dilutions in assay buffer) of peptides starting at 20 μM. 25 ul of recombinant human MAdCAM-1 (R&D Systems #6056-MC) was then added to each well at a fixed concentration 20 nM. The final starting peptide concentration was 10 μM, and the final MAdCAM-1 concentration was 10 nM. The plates were then incubated at room temperature for 1 hr to reach binding equilibrium. The wells were then washed three times with wash buffer. 50 ul of mouse anti-human IgG1-HRP (Invitrogen #A10648) diluted in 1:2000 in assay buffer was then added to each well. The wells were incubated at room temperature for 45 min with shaking. The wells were then washed 3 times with wash buffer. 100 ul of TMB were then added to each well and closely observe during development time. The reaction was stopped with 2N H2SO4 and absorbance was read at 450 nm.

[1] = Simulated Intestinal Fluid (SIF) Stability Assay; type: in vitro ADME; conditions: pig, 37° C., monomers, Table 6; for half-life at 22 μM: simulated intestinal fluid (SIF) with 1% porcine pancreatin, pH 6.5, porcine pancreatin; for half-life: porcine pancreatin
Description: Simulated Intestinal Fluid (SIF) Stability Assay
Studies were carried out in simulated intestinal fluid (SIF) to evaluate intestinal stability of the peptide molecules of the instant invention. To prepare the SIF reagent, blank FASSIF was prepared by dissolving 0.348 g NaOH, 3.954 g sodium phosphate monobasic monohydrate and 6.186 g NaCl in a final volume of 1 liter water (final pH=6.5). To this solution, 24 g porcine pancreatin (Sigma catalog P7545) was added and stirred for 30 minutes (final pancreatin concentration is 2.4%). The solution was filtered through a cheese cloth and a No. 1 Whatman filter, and 10 ml aliquots were stored at −70° C. To run the reaction, a 10 ml aliquot was thawed at 37° C., and 125 μl aliquots were removed and mixed with an equal volume of blank FASSIF. The peptide stock solution (10 mM in 100% DMSO) was diluted 75-fold in blank FASSIF. A 50 μl aliquot of the diluted peptide was combined with 125 μl pancreatin (2.4%) and 125 μl blank FASSIF to yield final concentrations of 1% pancreatin and 22 μM peptide. The reactions were incubated at 37° C., and at various time points 50 μl aliquots were removed and added to 200 μl of quench solution containing 50% acetonitrile, 50% methanol, 5% formic acid, and 1 μg/ml internal standard. The quenched samples were centrifuged at 10,000 rpm for 10 minutes, and the supernatants were analyzed by LCMS/MS. The percent remaining at each time point was calculated based on the peak area response ratio of test to compound to internal standard. Half-lives were calculated by fitting to a first-order exponential decay equation using GraphPad. A small sampling of the results of these studies is provided and discussed herein and in the accompanying figures.

Structure (SMILES)	IC50 (rh integrin α4β7)	half-life at 22 μM [1]	half-life [1]
CC(C)C[C@@H]1NC(=O)[C@H]([C@@H](C)O)NC(=O)[C@H](CC(=O)O)NC(=O)[C@H](CO)NC(=O)[C@H](CCCNC(=N)N)N(C)C(=O)CSC(C)(C)[C@@H](C(=O)N[C@@H](Cc2c[nH]c3ccccc23)C(=O)N[C@H](CCCCN)C(N)=O)NC1=O [compound 53]	0.1 to 1 µM	> 3 h	
CC(C)C[C@@H]1NC(=O)[C@H]([C@@H](C)O)NC(=O)[C@H](CC(=O)O)NC(=O)[C@H](CO)NC(=O)[C@H](CCCNC(=N)N)N(C)C(=O)c2ccccc2CSC(C)(C)[C@@H](C(=O)N[C@@H](Cc2ccc3ccccc3c2)C(=O)N[C@H](CCC(=O)O)C(=O)N[C@H](CCCCN)C(N)=O)NC1=O [compound 75] (HELM PEPTIDE1{[meR].S.D.T.L.[Pen].[O=C([C@H](Cc1ccc2ccccc2c1)N[*:1])[*:2]].[dE].[dK].[am]}|CHEM1{[O=C(c1ccccc1C[*:2])[*:1]]}$PEPTIDE1,CHEM1,1:R1-1:R1|PEPTIDE1,CHEM1,6:R3-1:R2$$$V2.0)	< 0.025 µM	> 3 h	
CC(C)C[C@@H]1NC(=O)[C@H]([C@@H](C)O)NC(=O)[C@H](CC(=O)O)NC(=O)[C@H](CO)NC(=O)[C@H](CCCNC(=N)N)N(C)C(=O)c2ccccc2CSC(C)(C)[C@@H](C(=O)N[C@@H](Cc2c[nH]c3ccccc23)C(=O)N[C@@H](CCC(=O)O)CC(=O)N[C@H](CCCCN)C(N)=O)NC1=O [compound 61] (HELM PEPTIDE1{[meR].S.D.T.L.[Pen].W.[O=C(O)CC[C@@H](CC(=O)[*:2])N[*:1]].[dK].[am]}|CHEM1{[O=C(c1ccccc1C[*:2])[*:1]]}$PEPTIDE1,CHEM1,1:R1-1:R1|PEPTIDE1,CHEM1,6:R3-1:R2$$$V2.0)	< 0.025 µM	> 3 h	
CC(C)C[C@@H]1NC(=O)[C@H]([C@@H](C)O)NC(=O)[C@H](CC(=O)O)NC(=O)[C@H](CO)NC(=O)[C@H](CCCNC(=N)N)N(C)C(=O)c2ccccc2CSC[C@H](C(=O)N[C@@H](Cc2c[nH]c3ccccc23)C(=O)N[C@@H](CCC(=O)O)CC(=O)N[C@H](CCCCN)C(N)=O)NC1=O [compound 66] (HELM PEPTIDE1{[meR].S.D.T.L.[dC].W.[O=C(O)CC[C@@H](CC(=O)[*:2])N[*:1]].[dK].[am]}|CHEM1{[O=C(c1ccccc1C[*:2])[*:1]]}$PEPTIDE1,CHEM1,1:R1-1:R1|PEPTIDE1,CHEM1,6:R3-1:R2$$$V2.0)	0.025 to 0.1 µM		> 3 h
CC(C)C[C@@H]1NC(=O)[C@H]([C@@H](C)O)NC(=O)[C@H](CC(=O)O)NC(=O)[C@H](CO)NC(=O)[C@H](CCCNC(=N)N)N(C)C(=O)c2ccccc2CSC(C)(C)[C@@H](C(=O)N[C@@H](Cc2cccc3ccccc23)C(=O)N[C@H](CCC(=O)O)C(=O)N[C@H](CCCCN)C(N)=O)NC1=O [compound 68] (HELM PEPTIDE1{[meR].S.D.T.L.[Pen].[O=C([C@H](Cc1cccc2ccccc12)N[*:1])[*:2]].[dE].[dK].[am]}|CHEM1{[O=C(c1ccccc1C[*:2])[*:1]]}$PEPTIDE1,CHEM1,1:R1-1:R1|PEPTIDE1,CHEM1,6:R3-1:R2$$$V2.0)	< 0.025 µM	> 3 h	
CC(C)C[C@@H]1NC(=O)[C@H]([C@@H](C)O)NC(=O)[C@H](CC(=O)O)NC(=O)[C@H](CO)NC(=O)[C@H](CCCNC(=N)N)NC(=O)c2ccccc2CSC[C@@H](C(=O)N[C@@H](Cc2c[nH]c3ccccc23)C(=O)N[C@H](CCCCN)C(N)=O)NC1=O [compound 59]	0.1 to 1 µM	< 0.333 h	
CC(C)C[C@@H]1NC(=O)[C@H]([C@@H](C)O)NC(=O)[C@H](CC(=O)O)NC(=O)[C@H](CO)NC(=O)[C@H](CCCNC(=N)N)N(C)C(=O)CCSCC[C@@H](C(=O)N[C@@H](Cc2c[nH]c3ccccc23)C(=O)N[C@H](CCCCN)C(N)=O)NC1=O [compound 57]	0.1 to 1 µM		< 0.333 h
COC(=O)CC[C@H](NC(=O)[C@H](Cc1c[nH]c2ccccc12)NC(=O)[C@H]1NC(=O)[C@H](CC(C)C)NC(=O)[C@H]([C@@H](C)O)NC(=O)[C@H](CC(=O)O)NC(=O)[C@H](CO)NC(=O)[C@H](CCCNC(=N)N)N(C)C(=O)c2ccccc2CSC1(C)C)C(=O)N[C@H](CCCCN)C(N)=O [compound 115] (HELM PEPTIDE1{[meR].S.D.T.L.[Pen].W.E.[dK].[am]}|CHEM1{[CO[*:1]]}|CHEM2{[O=C(c1ccccc1C[*:2])[*:1]]}$PEPTIDE1,CHEM1,8:R3-1:R1|PEPTIDE1,CHEM2,1:R1-1:R1|PEPTIDE1,CHEM2,6:R3-1:R2$$$V2.0)	< 0.025 µM		
CC(=O)NCCCC[C@@H](NC(=O)[C@@H](CCC(=O)O)NC(=O)[C@H](Cc1ccccc1)NC(=O)[C@H]1NC(=O)[C@H](CC(C)C)NC(=O)[C@H]([C@@H](C)O)NC(=O)[C@H](CC(=O)O)NC(=O)[C@H](CO)NC(=O)[C@H](CCCNC(=N)N)N(C)C(=O)c2ccccc2CSC1(C)C)C(N)=O [compound 87] (HELM PEPTIDE1{[meR].S.D.T.L.[Pen].F.[dE].[dK].[am]}|PEPTIDE2{[ac]}|CHEM1{[O=C(c1ccccc1C[*:2])[*:1]]}$PEPTIDE1,PEPTIDE2,9:R3-1:R2|PEPTIDE1,CHEM1,1:R1-1:R1|PEPTIDE1,CHEM1,6:R3-1:R2$$$V2.0)	< 0.025 µM		
